Measured values: paper PMC9403987 (Frontiers in Oncology, 2022)

Key:
Test in all cases: Cell proliferation assay
Assay type in all cases: cell-based, Homo sapiens
HCCLM3 = details: HCCLM3, liver, hepatocellular carcinoma, 72 hours
Procedure: (§1) To quantify cell proliferation, either the nuclei of live cells were counted following staining with 4’,6-diamidino-2-phenylindole (DAPI; Sigma-Aldrich, Burlington, MA, USA), or metabolically active cells were detected using a CellTiter-Glo assay (Promega Corporation, Madison, WI, USA). Cells from a range of human and mammalian tumor cell lines (American Type Culture Collection, Manassas, VA, USA) were seeded at 4000 cells per well in 100 μL of culture medium in a 96-well plate and incubated overnight at 37°C with 5% CO2. […] In the DAPI staining method, cells were washed using 1× phosphate-buffered saline (PBS; Gibco Thermo Fisher Scientific, Waltham, MA, USA), fixed with 4% formaldehyde, permeabilized with 0.2% Triton X-100 (Sigma-Aldrich), washed again, and stained with 1 μg/mL DAPI to visualize cell nuclei. Cells were washed with 1× PBS three times, and 100 μL 1× PBS was added to each well. Plates were scanned using an IN Cell Analyzer 2200 (GE Healthcare Life Sciences, Chicago, IL, USA) and the number of cells per well was recorded. In the CellTiter-Glo assay, 60 μL of CellTiter-Glo luminescent solution was added to each well after incubation with the test compounds, and the assay plate was scanned using a Tecan Infinite M1000 PRO microplate reader (Tecan Group AG, Männedorf, Switzerland) to record luminescent signals.

COLO 205 = details: COLO 205, colon carcinoma, 72 hours
Procedure: as §1

SNU-368 = details: SNU-368, liver, hepatocellular carcinoma, 72 hours
Procedure: as §1

DBTRG-05MG = details: brain, glioblastoma, 72 hours
Procedure: as §1

NCI-H1975 = details: NCI-H1975, lung, NSCLC, 72 hours
Procedure: as §1

HCC827 = details: HCC827, lung carcinoma, 72 hours
Procedure: as §1

U87/DK = details: brain, glioblastoma, 72 hours
Procedure: as §1

MDA-MB-468 = details: MDA-MB-468, breast carcinoma, 72 hours
Procedure: as §1

SNU-475 = details: SNU-475, liver, hepatocellular carcinoma, 72 hours
Procedure: as §1

HT29 = details: HT29, colon carcinoma, 72 hours
Procedure: as §1

NCI-H292 = details: NCI-H292, lung, mucoepidermoid pulmonary carcinoma, 72 hours
Procedure: as §1

LoVo = details: colorectal carcinoma, 72 hours
Procedure: as §1

Li-7 = details: Li-7, liver, hepatocellular carcinoma, 72 hours
Procedure: as §1

Huh-7 = details: Huh-7, liver, hepatocellular carcinoma, 72 hours
Procedure: as §1

BEL7405 = details: BEL7405, liver, hepatocellular carcinoma, 72 hours
Procedure: as §1

A172 = details: A172, brain, glioblastoma, 72 hours
Procedure: as §1

SNU-449 = details: SNU-449, liver, hepatocellular carcinoma, 72 hours
Procedure: as §1

SK-N-SH = details: brain, neuroblastoma, 72 hours
Procedure: as §1

PC-9 = details: PC-9, lung carcinoma, 72 hours
Procedure: as §1

HCT8 = details: HCT8, colorectal carcinoma, 72 hours
Procedure: as §1

SNU-398 = details: SNU-398, liver, hepatocellular carcinoma, 72 hours
Procedure: as §1

KP-N-YN = details: neural, neuroblastoma, 72 hours
Procedure: as §1

NCI-H1915 = details: NCI-H1915, lung, NSCLC, 72 hours
Procedure: as §1

CHP-212 = details: CHP-212, brain, neuroblastoma, 72 hours
Procedure: as §1

HTC116 = details: HTC116, colorectal carcinoma, 72 hours
Procedure: as §1

NCI-H358 = details: NCI-H358, lung, NSCLC, 72 hours
Procedure: as §1

JHH-7 = details: JHH-7, liver, hepatocellular carcinoma, 72 hours
Procedure: as §1

U118-MG = details: brain, glioblastoma, 72 hours
Procedure: as §1

MOG-G-UVW = details: brain, grade III astrocytoma, 72 hours
Procedure: as §1

SK-N-BE(2) = details: neuroblastoma, 72 hours
Procedure: as §1

NCI-H460 = details: NCI-H460, lung carcinoma, 72 hours
Procedure: as §1

MCF-7 = details: MCF-7, breast carcinoma, 72 hours
Procedure: as §1

NCI-H1155 = details: NCI-H1155, lung, NSCLC, 72 hours
Procedure: as §1

NCI-H23 = details: NCI-H23, lung, NSCLC, 72 hours
Procedure: as §1

U87-MG = details: brain, glioblastoma, 72 hours
Procedure: as §1

Question: Which results are given for `CCN1CCN(Cc2ccc(Nc3ncc(F)c(-c4cc(F)c5nc(C)n(C(C)C)c5c4)n3)nc2)CC1` [Abemaciclib, abemaciclib, reference compound]?
Answer: IC50 (HCCLM3; Homo sapiens): 3.1 µM; IC50 (COLO 205; Homo sapiens): 0.432 µM; IC50 (SNU-368; Homo sapiens): 0.034 µM; IC50 (DBTRG-05MG; Homo sapiens): 0.013 µM; IC50 (NCI-H1975; Homo sapiens): 0.112 µM; IC50 (HCC827; Homo sapiens): 0.016 µM; IC50 (U87/DK; Homo sapiens): 0.015 µM; IC50 (MDA-MB-468; Homo sapiens): 1.25 µM; IC50 (SNU-475; Homo sapiens): 0.195 µM; IC50 (HT29; Homo sapiens, HT-29): 1.84 µM; IC50 (NCI-H292; Homo sapiens): 0.149 µM; IC50 (LoVo; Homo sapiens): 0.025 µM; IC50 (Li-7; Homo sapiens): 6.29 µM; IC50 (Huh-7; Homo sapiens): 0.075 µM; IC50 (BEL7405; Homo sapiens): 2.14 µM; IC50 (A172; Homo sapiens, A 172): 0.112 µM; IC50 (SNU-449; Homo sapiens): 0.159 µM; IC50 (SK-N-SH; Homo sapiens): 0.08 µM; IC50 (PC-9; Homo sapiens): 0.457 µM; IC50 (HCT8; Homo sapiens, HCT-8): 0.384 µM; IC50 (SNU-398; Homo sapiens): 0.173 µM; IC50 (KP-N-YN; Homo sapiens): 0.827 µM; IC50 (NCI-H1915; Homo sapiens): 0.324 µM; IC50 (CHP-212; Homo sapiens): 0.032 µM; IC50 (HTC116; Homo sapiens): 0.076 µM; IC50 (NCI-H358; Homo sapiens): 0.044 µM; IC50 (JHH-7; Homo sapiens, JHH7): 1.17 µM; IC50 (U118-MG; Homo sapiens, U-118-MG): 0.086 µM; IC50 (MOG-G-UVW; Homo sapiens): 0.072 µM; IC50 (SK-N-BE(2); Homo sapiens, SKNBE2, brain): 0.133 µM; IC50 (NCI-H460; Homo sapiens): 0.654 µM; IC50 (MCF-7; Homo sapiens, MCF7): 0.006 µM; IC50 (NCI-H1155; Homo sapiens): 2.41 µM; IC50 (NCI-H23; Homo sapiens): 0.904 µM; IC50 (U87-MG; Homo sapiens, U-87 MG): 0.106 µM

Question: With `CC1=Nc2c(F)cc(-c3nc(Nc4ccc(C5CCN(C)CC5)cn4)ncc3F)cc2C12CCCC2` [GLR2007] as the compound, how does the IC50 (HCCLM3) read?
Answer: The IC50 was 1.84 µM.

Question: And the IC50 (COLO 205)?
Answer: The IC50 was 0.194 µM.

Question: What about the IC50 (SNU-368) of the same compound?
Answer: The IC50 was 0.013 µM.

Question: What about the IC50 (DBTRG-05MG) of the same compound?
Answer: Its IC50 is 0.006 µM.

Question: And the IC50 (NCI-H1975)?
Answer: The IC50 was 0.01 µM.

Question: And the IC50 (HCC827)?
Answer: Its IC50 is 0.015 µM.

Question: And the IC50 (U87/DK)?
Answer: Its IC50 is 0.003 µM.

Question: What about the IC50 (MDA-MB-468) of the same compound?
Answer: The IC50 was 1.94 µM.

Question: And the IC50 (SNU-475)?
Answer: Its IC50 is 0.085 µM.

Question: And the IC50 (HT29)?
Answer: The IC50 was 0.601 µM.

Question: What about the IC50 (NCI-H292) of the same compound?
Answer: The IC50 was 0.073 µM.

Question: And the IC50 (LoVo)?
Answer: Its IC50 is 0.013 µM.

Question: What about the IC50 (Li-7) of the same compound?
Answer: Its IC50 is 0.712 µM.

Question: And the IC50 (Huh-7)?
Answer: The IC50 was 0.043 µM.

Question: What about the IC50 (BEL7405) of the same compound?
Answer: Its IC50 is 1.15 µM.

Question: What about the IC50 (A172) of the same compound?
Answer: The IC50 was 0.041 µM.

Question: And the IC50 (SNU-449)?
Answer: Its IC50 is 0.067 µM.

Question: What about the IC50 (SK-N-SH) of the same compound?
Answer: The IC50 was 0.032 µM.

Question: What about the IC50 (PC-9) of the same compound?
Answer: The IC50 was 0.18 µM.

Question: What about the IC50 (HCT8) of the same compound?
Answer: Its IC50 is 0.081 µM.

Question: And the IC50 (SNU-398)?
Answer: The IC50 was 0.051 µM.

Question: What about the IC50 (KP-N-YN) of the same compound?
Answer: The IC50 was 0.657 µM.

Question: And the IC50 (NCI-H1915)?
Answer: Its IC50 is 0.053 µM.

Question: What about the IC50 (CHP-212) of the same compound?
Answer: The IC50 was 0.018 µM.

Question: And the IC50 (HTC116)?
Answer: The IC50 was 0.038 µM.

Question: What about the IC50 (NCI-H358) of the same compound?
Answer: Its IC50 is 0.017 µM.

Question: And the IC50 (JHH-7)?
Answer: Its IC50 is 0.578 µM.

Question: What about the IC50 (U118-MG) of the same compound?
Answer: Its IC50 is 0.023 µM.

Question: What about the IC50 (MOG-G-UVW) of the same compound?
Answer: The IC50 was 0.043 µM.

Question: And the IC50 (SK-N-BE(2); brain)?
Answer: Its IC50 is 0.13 µM.

Question: What about the IC50 (NCI-H460) of the same compound?
Answer: The IC50 was 0.235 µM.

Question: And the IC50 (MCF-7)?
Answer: Its IC50 is 0.002 µM.

Question: And the IC50 (NCI-H1155)?
Answer: The IC50 was 1.82 µM.

Question: And the IC50 (NCI-H23)?
Answer: The IC50 was 0.243 µM.

Question: And the IC50 (U87-MG)?
Answer: Its IC50 is 0.016 µM.
